In the assay the target is T1, GlcPSe (Staphylococcus epidermidis, UniProt A0A0H2VG78).
T1 construct: made in house; host or cells: Escherichia coli JM1100 (pBAD); right-side-out membrane vesicles
T1 sequence (A0A0H2VG78 1-446): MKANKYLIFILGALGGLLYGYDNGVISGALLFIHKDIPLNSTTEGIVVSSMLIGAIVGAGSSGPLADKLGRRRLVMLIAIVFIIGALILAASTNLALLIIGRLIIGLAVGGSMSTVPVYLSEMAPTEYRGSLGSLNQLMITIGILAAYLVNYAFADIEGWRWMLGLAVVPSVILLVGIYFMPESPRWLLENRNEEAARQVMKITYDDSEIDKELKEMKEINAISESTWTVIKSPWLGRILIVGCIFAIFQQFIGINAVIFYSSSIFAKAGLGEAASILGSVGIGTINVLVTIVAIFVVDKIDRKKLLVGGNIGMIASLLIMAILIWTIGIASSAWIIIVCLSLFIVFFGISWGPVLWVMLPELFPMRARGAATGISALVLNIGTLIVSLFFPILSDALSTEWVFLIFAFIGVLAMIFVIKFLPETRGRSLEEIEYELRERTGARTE
The assay can be described thus: Glucose uptake by GlcPSe in right-side-out vesicles of JM1100 E. coli cells. It counts as biochemical. The following applies: 2 mM compound, RSO vesicles, 30 μM C14-glucose, one minute. Here is the method:
Glucose transport assay for GlcPSe, wild-type and F348H mutant, was performed as described previouslyl^16. GlcPSe was cloned into the pBAD vector (Invitrogen) with C-terminal 6×His tag. F348H mutation was done with the site-directed mutagenesis method^37. GlcPSe proteins were expressed in the glucose transporter deficient Escherichia coli strain JM1100. Cells were grown at 37° C., in Luria Broth medium, with 100 μg/mL ampicillin. Protein expression was induced with 0.3 mM L-arabinose at O.D.600 nm 0.6. After 3 hours, cells were harvested by centrifugation at 2,500 g for 5 min. The right-side-out (RSO) membrane vesicles of JM1100 E. coli cells were prepared as described previouslyl^16,39,40. Transport assay was initiated by the addition of ^14C-radiolabeled glucose (Moravek Biochemicals) to 50 μL RSO vesicles in 100 mM KPi buffer pH 7.5, at O.D.600 nm of 2.0. After one minute, the transport was stopped and the radioactivity was measured as described below. When inhibitors were used, they were incubated with RSO vesicles 1 minute before transport initiation.
Given the partial conservation of the MSNBA binding site in other GLUTs and GlcPSe, we checked whether MSNBA inhibits GLUT1-4 or GlcPSe. Glucose transport of GLUT1, GLUT2, GLUT3 and GLUT4 and fructose transport of GLUT2 were assayed by the entrance counter-flow method in proteoliposomes constructed with the respective recombinant human GLUT produced in insect cells. Glucose transport of GlcPSe was measured in right-side-out (RSO) vesicles of JM1100 E. coli cells (that lack endogenous glucose transport) expressing GlcPSe.

“Also recorded” adds a separate entry of the source.

On to `CS(=O)(=O)c1ccc(Nc2ccc3c(c2)OCO3)c([N+](=O)[O-])c1` [MSNBA, N-[4-(methylsulfonyl)-2-nitrophenyl]-1,3-benzodioxol-5-amine], for which the “effect on GlcPSe glucose transport” value is reported as “did not affect; also recorded: did not influence”.
Regarding `C=C1[C@@H](C)[C@H]2[C@H](Cc3ccccc3)NC(=O)[C@]23OC(=O)/C=C/[C@H](O)CCC[C@@H](C)C/C=C/[C@H]3[C@@H]1O` [cytochalasin B, reference compound], the “effect on GlcPSe glucose transport” value is “inhibited”.
Consider `O=C(CCc1ccc(O)cc1)c1c(O)cc(O)cc1O` [phloretin, reference compound], for which the “effect on GlcPSe glucose transport” value is given as “inhibited”.

The record behind these values is patent US10822325B2, “Human GLUT5 specific inhibitors and methods of treatment” (UNM RAINFOREST INNOVATIONS, priority 2015, dated 2020).
